{"source": "patent EP4652843A1", "about": "“BIOPESTICIDE COMPOSITION, PROCEDURE OF OBTAIN THEREOF, AND METHOD FOR CONTROLLING AND TREATING BROAD SPECTRUM OF PESTS IN PLANTS” (Kimitec Biogroup S.L, priority 2024, dated 2025)", "key": {"[1]": {"details": "cited from earlier work"}, "Tuta absoluta [2]": {"tested_on": "Tuta absoluta", "experiment": "Contact mortality (Leaf Disc Method), solvent comparison, Tuta absoluta", "details": "Group A: individual solvents, diluted at 0.3% (3cc/L) in water without formulation, Abbott's corrected", "description": "(§1) The objective of this bioassay is to evaluate the effect of test items on the mortality of insect (Fam Tortricidae and Fam Gelechiidae) and other side pests as target in a short/medium-term (0-24 hours) by topical application. All trials were carried out on whole alive target. Four independent replicates of the whole setup were performed for each target as follow: (Figure 12) first of all, 10g/L agar-agar was prepared (1) and deposited in petri dish according to the target (2), after adding cut leaf disc around 4 cm diameter from healthy bean plants (3), fixing the plant material on the semi solid agar in the petri dish (4). Insect adults (from 3 to 15 according to the target) are setting on surface of leaf disc (5). Biopesticide composition was sprayed 0.1-02 ml per experimental unit (6), a total of 10 replicates for each treatment (biopesticide composition and positive control; commercial products based on anthranilic diamide and emamectin to recommend doses in the label) were used in each experiment and incubated and evaluated after 24 hours (7).\n(§2) Insects and mites were considered dead if no movement was apparent after probing with the tip of a fine brush under stereoscopic magnifying glass. Mortality percentage was calculated in treatment and control groups. If the mortality in negative control is above 20% the test was discarded.\n(§3) Means of %M were compared using a one-way analysis of variance (ANOVA, p<0.05) and LSD-test as a post hoc test to verify significant differences between single treatments using Statgraphics Centurion XVII software. When nonnormality in the data was detected, an additional Kruskal-Wallis test was conducted, and Box-and-Whisker Plot (Median Notch) was presented.\n(§4) The different compositions were tested by trials that were carried out on different relevant insect pests and acari including: Tuta absoluta, Bemisia tabaci, Myzus persicae, Frankliniella occidentalis and Tetranychus urticae. The bioassay type used was contact mortality (Leaf Disc Method) described in the example 4.\n(§5) The main treatments included in the comparison of efficacy are: Group A: Individual solvents: Benzyl alcohol, ethanol, isopropanol, and water were applied directly (purity as in the label) diluted at 0.3% (3cc/L) in water without formulation. Group B: Vegetable matrix extracts were extracted with different solvents such as benzyl alcohol, ethanol, isopropanol, and water in a blend of inert ingredients as follows: […]"}, "[3]": {"tested_on": "Frankliniella occidentalis", "experiment": "Contact mortality (Leaf Disc Method), solvent comparison, Frankliniella occidentalis", "details": "Group A: individual solvents, diluted at 0.3% (3cc/L) in water without formulation, Abbott's corrected", "description": "as §1, §2, §3, §4, §5"}, "Bemisia tabaci": {"tested_on": "Bemisia tabaci", "experiment": "Contact mortality (Leaf Disc Method), solvent comparison, Bemisia tabaci", "details": "Group A: individual solvents, diluted at 0.3% (3cc/L) in water without formulation, Abbott's corrected", "description": "as §1, §2, §3, §4, §5"}, "Myzus persicae": {"tested_on": "Myzus persicae", "experiment": "Contact mortality (Leaf Disc Method), solvent comparison, Myzus persicae", "details": "Group A: individual solvents, diluted at 0.3% (3cc/L) in water without formulation, Abbott's corrected", "description": "as §1, §2, §3, §4, §5"}, "Tetranychus urticae": {"tested_on": "Tetranychus urticae", "experiment": "Contact mortality (Leaf Disc Method), solvent comparison, Tetranychus urticae", "details": "Group A: individual solvents, diluted at 0.3% (3cc/L) in water without formulation, Abbott's corrected", "description": "as §1, §2, §3, §4, §5"}, "Cydia pomonella": {"tested_on": "Cydia pomonella", "experiment": "Field trial against Cydia pomonella in Pyrus communis and Malus domestica", "assay_type": "in vivo", "details": "0,2cc/L, one value per plot (1-3)", "description": "(§6) The biopesticide composition (table 2) was tested in field trials against Grapholita molesta in Prunus persica […] to validate efficacy, parametrised by % efficacy (abbott) on fruit damage incidence. 3 plots were treated, each plot has 4-6 trees with a sample size of 100-300 fruits/ plot. The trees were treated with biopesticide composition and positive control; commercial products based on chlorantraniliprole for recommend doses in the label in 2 applications at interval of 10 days. Table 9. % Efficacy against Grapholita molesta in field trials.\nThe same test was repeated in Pyrus communis and Malus domestica to validate efficacy against Cydia pomonella. Table 10. % Efficacy against Cydia pomonella in field trials"}, "Grapholita molesta": {"tested_on": "Grapholita molesta", "experiment": "Field trial against Grapholita molesta in Prunus persica", "assay_type": "in vivo", "details": "0,2cc/L, % efficacy (abbott) on fruit damage incidence, one value per plot (1-3)", "description": "as §6"}, "Tuta absoluta [4]": {"tested_on": "Tuta absoluta", "experiment": "Field trial against Tuta absoluta in Solanum lycopersicum", "assay_type": "in vivo", "details": "1,5 gr/L, % efficacy (Henderson & Tilton) on damaged leaflets, one value per plot (1-3)", "description": "The biopesticide composition was tested in field trials against Tuta absoluta in Solanum lycopersicum to validate efficacy, parametrised by % efficacy (Henderson & Tilton) on damaged leaflets (50 random leaflets/Plot). 3 plots were treated, each plot has 10m^2. The plants were treated with biopesticide composition and positive control; commercial products based on emamectin for recommend doses in the label in 3 applications at interval of 7 days. Table 11. % Efficacy against Tuta absoluta in field trials"}, "[5]": {"tested_on": "lepidoptera larvae (Grapholita molesta)", "experiment": "Antifeedant effects: settling inhibition, Grapholita molesta larvae", "assay_type": "in vivo", "details": "dose 1.5 g/L; 24H after application", "description": "The concept of antifeedant as a substance that acts on insect behaviour involves feeding reduction (FR) and settling inhibition (SI). In some cases, settling inhibition is considered as indirect repellent effect. […] Feeding reduction index (%FR) or settling inhibition index (%SI) was calculated according to the following formula: % FR or SI = (1−((T)/(C)))∗100 [formula] where: T= Settling of treated plants; C= Setting of control plants. Table 3. In vitro efficacy against lepidoptera larvae (Grapholita molesta)"}, "[6]": {"tested_on": "lepidoptera larvae (Tuta absoluta)", "experiment": "Contact mortality (Leaf Disc Method), Tuta absoluta larvae", "assay_type": "in vivo", "details": "dose 0.5 kg/ha; 24H after application; Abbott's corrected; mean of 3 repetitions", "description": "(§7) All trials were carried out on whole alive target.\n(§8) Mortality percentage was calculated in treatment and control groups."}, "[7]": {"tested_on": "lepidoptera adults (Grapholita molesta)", "experiment": "Contact mortality (Leaf Disc Method), Grapholita molesta adults", "assay_type": "in vivo", "details": "dose 1.5 g/L; 24H after application; Abbott's corrected", "description": "as §7, §8"}, "[8]": {"tested_on": "lepidoptera larvae (Tuta absoluta)", "experiment": "Antifeedant effects: feeding reduction (choice assays), Tuta absoluta larvae", "assay_type": "in vivo", "details": "dose 0.5 kg/ha, surface covered by mines, 24H after application"}, "[9]": {"tested_on": "lepidoptera adults (Cydia pomonella)", "experiment": "Contact mortality (Leaf Disc Method), Cydia pomonella adults", "assay_type": "in vivo", "details": "dose 1.5 g/L; 24H after application; Abbott's corrected", "description": "as §7, §8"}, "[10]": {"tested_on": "lepidoptera larvae (Grapholita molesta)", "experiment": "Contact mortality (Leaf Disc Method), Grapholita molesta larvae", "assay_type": "in vivo", "details": "dose 1.5 g/L; 24H after application; Abbott's corrected; mean of 4 repetitions", "description": "as §7, §8"}}, "note": "Values joined by “and” are separate entries in the source; they are usually repeats but may differ in a detail not shown here. Equal entries are not always repeated. Marks after values point to notes of the source that are not given here."}
{"compound": "OCc1ccccc1", "note": "[Benzyl alcohol (BnOH), Benzyl alcohol]", "values": [{"measurement": "solubility in water", "setting": "[1]", "value": 4, "unit": "g/100 mL"}, {"measurement": "Contact mortality (%M) Tuta absoluta", "setting": "Tuta absoluta [2]", "value": "29.6 ± 5.7 ^a %"}, {"measurement": "Contact mortality (%M) Frankliniella occidentalis", "setting": "[3]", "value": "12.5 ± 7.8 ^a %"}, {"measurement": "Contact mortality (%M) Bemisia tabaci", "setting": "Bemisia tabaci", "value": "49.8 ± 6.2 ^a %"}, {"measurement": "Contact mortality (%M) Myzus persicae", "setting": "Myzus persicae", "value": "19.8 ± 6.2 ^a %"}, {"measurement": "Contact mortality (%M) Tetranychus urticae", "setting": "Tetranychus urticae", "value": "33.4 ± 4.1 ^a %"}]}
{"compound": "CNC(=O)c1cc(Cl)cc(C)c1NC(=O)c1cc(Br)nn1-c1ncccc1Cl", "note": "[Chlorantraniliprole]", "values": [{"measurement": "% Efficacy against Cydia pomonella in field trials", "setting": "Cydia pomonella; 10 days after the last application", "value": "59% and 62% and 75%"}, {"measurement": "% Efficacy against Cydia pomonella in field trials", "setting": "Cydia pomonella; 20 days after the last application", "value": "68% and 62% and 73%"}, {"measurement": "% Efficacy against Grapholita molesta in field trials", "setting": "Grapholita molesta; 14 days after the last application", "value": "58% and 63% and 42%"}, {"measurement": "% Efficacy against Grapholita molesta in field trials", "setting": "Grapholita molesta; 21 days after the last application", "value": "62% and 51% and 61%"}]}
{"compound": "CCO", "note": "[Ethanol (EtOH), Ethanol]", "values": [{"measurement": "Contact mortality (%M) Tuta absoluta", "setting": "Tuta absoluta [2]", "value": "0.0 ± 0.0 ^c %"}, {"measurement": "Contact mortality (%M) Frankliniella occidentalis", "setting": "[3]", "value": "0.0 ± 0.0 ^b %"}, {"measurement": "Contact mortality (%M) Bemisia tabaci", "setting": "Bemisia tabaci", "value": "23.5 ± 8.4 ^b %"}, {"measurement": "Contact mortality (%M) Myzus persicae", "setting": "Myzus persicae", "value": "16.7 ± 9.1 ^a %"}, {"measurement": "Contact mortality (%M) Tetranychus urticae", "setting": "Tetranychus urticae", "value": "0.0 ± 0.0 ^b %"}]}
{"compound": "CC(C)O", "note": "[Isopropanol (IPN), Isopropanol]", "values": [{"measurement": "Contact mortality (%M) Tuta absoluta", "setting": "Tuta absoluta [2]", "value": "11.4 ± 7.2 ^b %"}, {"measurement": "Contact mortality (%M) Frankliniella occidentalis", "setting": "[3]", "value": "0.0 ± 0.0 ^b %"}, {"measurement": "Contact mortality (%M) Bemisia tabaci", "setting": "Bemisia tabaci", "value": "0.0 ± 0.0 ^c %"}, {"measurement": "Contact mortality (%M) Myzus persicae", "setting": "Myzus persicae", "value": "0.0 ± 0.0 ^b %"}, {"measurement": "Contact mortality (%M) Tetranychus urticae", "setting": "Tetranychus urticae", "value": "0.0 ± 0.0 ^b %"}]}
{"compound": "O", "note": "[Water]", "values": [{"measurement": "Contact mortality (%M) Tuta absoluta", "setting": "Tuta absoluta [2]; 1440 min", "value": "0.0 ± 0.0 ^c %"}, {"measurement": "Contact mortality (%M) Frankliniella occidentalis", "setting": "[3]; 1440 min", "value": "0.0 ± 0.0 ^b %"}, {"measurement": "Contact mortality (%M) Bemisia tabaci", "setting": "Bemisia tabaci; 1440 min", "value": "0.0 ± 0.0 ^c %"}, {"measurement": "Contact mortality (%M) Myzus persicae", "setting": "Myzus persicae; 1440 min", "value": "0.0 ± 0.0 ^b %"}, {"measurement": "Contact mortality (%M) Tetranychus urticae", "setting": "Tetranychus urticae; 1440 min", "value": "0.0 ± 0.0 ^b %"}]}
{"compound": "Emamectin", "values": [{"measurement": "% Efficacy against Tuta absoluta in field trials", "setting": "Tuta absoluta [4]; 7 days after 1st application", "value": "62% and 43% and 71%"}, {"measurement": "% Efficacy against Tuta absoluta in field trials", "setting": "Tuta absoluta [4]; 7 days after 2nd application", "value": "53% and 58%"}, {"measurement": "% Efficacy against Tuta absoluta in field trials", "setting": "Tuta absoluta [4]; 7 days after 3rd application", "value": "67% and 61% and 55%"}, {"measurement": "Settling inhibition (%SI)", "setting": "[5]", "value": "36.0 ± 5.8", "unit": "%"}, {"measurement": "Contact mortality in-leaf (%M)", "setting": "[6]", "value": "80.3 ± 8.7 ^(a) %"}, {"measurement": "Contact mortality out-leaf (%M)", "setting": "[6]", "value": "65.3 ± 3.8 ^(ab) %"}, {"measurement": "Contact mortality (%M)", "setting": "[7]", "value": "88.9 ± 2.0 ^(a) %"}, {"measurement": "Feeding reduction (%FR)", "setting": "[8]", "value": "59.1 ± 0.8", "unit": "%"}, {"measurement": "Contact mortality (%M)", "setting": "[9]", "value": "94.5 ± 1.9 ^(a) %"}, {"measurement": "Contact mortality (%M)", "setting": "[10]", "value": "100.0 ± 0.0 ^(a) %"}]}
